Assay results: patent publication EP0978517A2, “Triazolopurines, process for their preparation and their use as medicaments” (Boehringer Ingelheim Pharma KG, priority 1996, dated 1998)
pKi: −log10 of the molar value.

Experiments:
A2-Rezeptor = A2-Rezeptor (Rattus norvegicus, UniProt P30543); assay: A2 receptor binding (Table 20); details: Ratte; Rezeptorbindungswerte, Tabelle 20; read-out: KiA2
Description: (§1) Die nachfolgende Tabelle enthält KiA1 (human) und KiA2 (Ratte) Rezeptorbindungswerte. Tabelle 20

[1] = biological target: T1, human A1 adenosine Receptor (Homo sapiens, UniProt P30542); assay: A1 receptor binding, determined in analogy to Ensinger et al. (Table 20); details: Rezeptorbindungswerte, Tabelle 20, read-out: KiA1
T1 sequence (P30542 1-326): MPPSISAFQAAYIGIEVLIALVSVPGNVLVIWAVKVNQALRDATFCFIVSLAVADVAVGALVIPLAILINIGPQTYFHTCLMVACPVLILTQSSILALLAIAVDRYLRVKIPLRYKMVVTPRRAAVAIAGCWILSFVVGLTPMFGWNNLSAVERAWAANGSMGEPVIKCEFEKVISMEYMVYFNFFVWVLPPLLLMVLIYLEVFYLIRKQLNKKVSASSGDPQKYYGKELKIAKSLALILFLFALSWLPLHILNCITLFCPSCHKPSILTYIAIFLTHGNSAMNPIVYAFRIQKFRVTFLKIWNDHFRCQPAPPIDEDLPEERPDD
Description: Die ermittelten A1-Rezeptorbindungswerte wurden in Analogie zu Ensinger et al. in "Cloning and functional characterisation of human A1 adenosine Receptor - Biochemical and Biophysical Communications, Vol 187, No. 2, 919-926, 1992" bestimmt und sind in Tabelle 20 zusammengefaßt.
as §1

[2] = biological target: T2, human A3-adenosine receptor (Homo sapiens, UniProt P0DMS8); assay: A3 receptor binding, determined in analogy to Salvatore et al. (Table 21); details: Rezeptorbindungswerte, Tabelle 21, read-out: KiA3
T2 sequence (P0DMS8 1-318): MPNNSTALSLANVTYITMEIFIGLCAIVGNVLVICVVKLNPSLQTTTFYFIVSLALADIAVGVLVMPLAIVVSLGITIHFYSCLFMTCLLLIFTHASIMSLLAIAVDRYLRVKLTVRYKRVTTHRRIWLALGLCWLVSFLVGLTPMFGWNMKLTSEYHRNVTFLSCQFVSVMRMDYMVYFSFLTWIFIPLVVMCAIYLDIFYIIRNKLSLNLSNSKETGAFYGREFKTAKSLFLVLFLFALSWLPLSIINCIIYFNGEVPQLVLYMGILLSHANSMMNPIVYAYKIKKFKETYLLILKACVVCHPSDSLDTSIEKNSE
Description: Die in Tabelle 21 zusammengefassten A3-Rezeptorbindungswerte wurden in Analogie zu Salvatore et al. "Molecular cloning and characterization of the human A3-adenosine receptor" (Proc. Natl. Acad. Sci. USA 90, 10365-10369, 1993) ermittelt.
Die nachfolgende Tabelle enthält KiA3 (human) Rezeptorbindungswerte. Tabelle 21

Chain of A2-Rezeptor (P30543 whole entry): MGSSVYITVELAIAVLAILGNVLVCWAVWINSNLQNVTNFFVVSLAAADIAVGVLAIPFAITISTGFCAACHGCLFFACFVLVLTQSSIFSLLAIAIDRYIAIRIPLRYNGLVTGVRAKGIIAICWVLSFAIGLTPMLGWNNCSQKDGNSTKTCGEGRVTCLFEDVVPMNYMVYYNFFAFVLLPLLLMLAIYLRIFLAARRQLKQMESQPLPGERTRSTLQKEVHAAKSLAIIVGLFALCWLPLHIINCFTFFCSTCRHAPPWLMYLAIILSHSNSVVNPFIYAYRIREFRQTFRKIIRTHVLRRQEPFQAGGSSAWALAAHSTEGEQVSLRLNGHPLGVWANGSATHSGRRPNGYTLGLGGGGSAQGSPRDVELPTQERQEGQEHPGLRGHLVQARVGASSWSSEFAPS

| SMILES | pKi (A2-Rezeptor) | pKi [1] | pKi [2] |
| --- | --- | --- | --- |
| CCn1c2nc(C3CCCC3)[nH]c2c(=O)n2ncnc12 [Beispiel 30] | 5.48 | 7.09 | – |
| CCCc1nc2c([nH]1)c(=O)n1nc(Cc3ccccc3)nc1n2CCC [Beispiel 7] | 6.80 | 8.09 | – |
| O=c1c2[nH]c(C3CCCC3)nc2n(Cc2ccccc2)c2nc(Cc3ccccc3)nn12 [Beispiel 12] | – | – | 7.70 |
| CCCn1c2nc(N3CCOCC3)[nH]c2c(=O)n2nc(Cc3ccccc3)nc12 [Beispiel 13] | 7.09 | 8.28 | – |
| CCn1c2nc(C3CCCC3)[nH]c2c(=O)n2nc(Cc3ccccc3)nc12 [Beispiel 9] | 6.37 | 8.85 | – |
| CCCCn1c2nc[nH]c2c(=O)n2nc(Cc3ccccc3)nc12 [Beispiel 4] | – | – | 8.64 |
| CCCn1c2nc(CC)[nH]c2c(=O)n2nc(C3CCCC3)nc12 [Beispiel 23] | – | – | 8.70 |
| CCCCCn1c2nc(C3CCCC3)[nH]c2c(=O)n2nc(Cc3ccccc3)nc12 [Beispiel 25] | 5.91 | 7.99 | 7.59 |
| CCCn1c2nc(C3CCCC3)[nH]c2c(=O)n2nc(Cc3ccccc3)nc12 [Beispiel 10] | 6.14 | 8.77 | – |
| CCCn1c2nc(CC)[nH]c2c(=O)n2nc(Cc3ccccc3)nc12 [Beispiel 6] | – | – | 8.70 |
| CCCCn1c2nc(C3CCCC3)[nH]c2c(=O)n2nc(Cc3ccccc3)nc12 [Beispiel 11] | 6.46 | 8.08 | – |
| O=c1c2[nH]cnc2[nH]c2nc(C3CCCC3)nn12 [Beispiel 19] | – | – | 8.42 |
| Cn1c2nc(C3CCCC3)[nH]c2c(=O)n2nc(Cc3ccccc3)nc12 [Beispiel 8] | 6.44 | 8.72 | – |
| CCCc1nc2n(CCC)c3nc(C4CCCC4)[nH]c3c(=O)n2n1 [Beispiel 36] | 6.14 | 8.24 | – |
| CCCn1c2nc[nH]c2c(=O)n2nc(Cc3ccccc3)nc12 [Beispiel 3] | – | – | 8.33 |

Results, then the compound that gave them:

| pKi (A2-Rezeptor) | pKi [1] | pKi [2] | SMILES |
| --- | --- | --- | --- |
| 6.27 | 8.19 | 7.66 | CCCCc1nc2n(CCC)c3nc(C4CCCC4)[nH]c3c(=O)n2n1 [Beispiel 38] |
| – | – | 7.52 | CCn1c2nc(C(C)(C)C)[nH]c2c(=O)n2nc(Cc3ccccc3)nc12 [compound 68] |
| – | – | 7.60 | CCc1nc2c([nH]1)c(=O)n1nc(COc3ccc(OC)cc3)nc1n2CC [compound 82] |
| 6.51 | 8.19 | – | CCCn1c2nc(C3CCCC3)[nH]c2c(=O)n2nc(C(C)C)nc12 [Beispiel 37] |
| – | – | 8.52 | CCCn1c2nc(N(C)C)[nH]c2c(=O)n2nc(Cc3ccccc3)nc12 [compound 65] |
| – | – | 8.28 | CCc1nc2c([nH]1)c(=O)n1nc(CCc3ccccc3)nc1n2CC [compound 78] |
| 5.35 | 7.94 | – | CCCn1c2nc(C3CCCC3)[nH]c2c(=O)n2nc(-c3ccco3)nc12 [Beispiel 48] |
| 6.27 | 8.22 | – | CCCn1c2nc(C3CCCC3)[nH]c2c(=O)n2nc(C(C)(C)C)nc12 [Beispiel 39] |
